Source: article PMC3199943, “Screening the MayBridge Rule of 3 Fragment Library for Compounds That Interact with the Trypanosoma brucei myo-Inositol-3-Phosphate Synthase and/or Show Trypanocidal Activity” (Molecular Biology International, 2011)
Where a name gives a salt, the structure may show the parent alone. Read-outs that look alike come from different tables or passages of the source.

Legend:
TbINO1 = molecular target: T1, TbINO1 (Trypanosoma brucei brucei, UniProt Q5QQ46); assay: biochemical; format: binding
T1 sequence (Q5QQ46 1-528): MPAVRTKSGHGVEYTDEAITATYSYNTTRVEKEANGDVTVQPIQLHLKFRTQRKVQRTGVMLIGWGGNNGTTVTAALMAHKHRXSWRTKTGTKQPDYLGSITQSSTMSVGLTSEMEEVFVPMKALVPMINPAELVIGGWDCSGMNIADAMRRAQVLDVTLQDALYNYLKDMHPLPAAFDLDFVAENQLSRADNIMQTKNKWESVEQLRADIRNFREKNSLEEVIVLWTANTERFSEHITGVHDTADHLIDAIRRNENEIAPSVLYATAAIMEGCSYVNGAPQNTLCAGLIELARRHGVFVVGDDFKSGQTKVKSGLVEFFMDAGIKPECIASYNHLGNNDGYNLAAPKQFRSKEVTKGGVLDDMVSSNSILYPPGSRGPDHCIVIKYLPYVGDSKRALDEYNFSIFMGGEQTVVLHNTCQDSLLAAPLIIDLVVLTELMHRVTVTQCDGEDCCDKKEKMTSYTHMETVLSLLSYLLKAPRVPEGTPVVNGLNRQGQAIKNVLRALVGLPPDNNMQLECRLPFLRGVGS

HeLa cells = assay: cells; conditions: for HeLa Cells Alamar Blue: Supplementary Table 1; for viability at 500 µM: 65 h
Method in brief: (§1)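 HeLa and A549 cells grown in DMEM with 10% FCS and 2 mM L-Glutamine were seeded at 2 × 10^4 cells/well. They were exposed to compounds for ~65 hours, then Alamar Blue was added for a further 5 hours to measure viability.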

A549 cells = assay: Cytotoxicity against A549 cells, Alamar Blue; format: cell-based; conditions: Supplementary Table 1, compound 0.5 mM, percentage of controls (n=1); for viability at 500 µM: Homo sapiens, A549, 65 h
Method in brief: as §1

[1] = Supplementary Table 1, compound 1mM, mean ± SD from Boltzman curve fitting
[2] = compound 0.5 mM, percentage of controls, mean ± SD (n=3) or SE (n=2)
[3] = read-out: Tb Ino1 Tm Shift [˚C]
[4] = Homo sapiens, HeLa, read-out: HeLa Cells Alamar Blue
[5] = Homo sapiens, HeLa, read-out: HeLa Cells Alamar Blue, Supplementary Table 1, compound 0.5 mM, percentage of controls, mean ± SD (n=3) or SE (n=2)
[6] = Homo sapiens, HeLa, read-out: HeLa Cells Alamar Blue (% survival)

| Compound | ΔTm at 1000 µM (TbINO1; [3]) | viability at 500 µM (HeLa cells; [4]) | viability at 500 µM (A549 cells) | other results |
| --- | --- | --- | --- | --- |
| CN(N)c1cc(C(F)(F)F)ccn1 [compound 554, 2‐(1‐methylhydrazino)‐4‐(trifluoromethyl)pyridine] |  |  |  | Tb Ino1 Tm Shift [˚C] (TbINO1; [1]): 0.15 ± 0.08 °C; HeLa Cells Alamar Blue (HeLa cells; [2]): 95.6 ± 16.7 percentage of controls; A549 Cells Alamar Blue (A549 cells): 96.1 percentage of controls |
| Fc1ccc(-n2cccc2)cc1 [compound 276, 1‐(4‐fluorophenyl)‐1H‐pyrrole] | 0.75 ± 0.08 °C | 104 ± 16.6% | 70.2% |  |
| COC(=O)c1cc(C)[nH]c1C [compound 214, methyl 2,5‐dimethyl‐1H‐pyrrole‐3‐carboxylate] |  |  |  | Tb Ino1 Tm Shift [˚C] (TbINO1; [1]): 0.78 ± 0.06 °C; HeLa Cells Alamar Blue (HeLa cells; [2]): 74.8 ± 18 percentage of controls; A549 Cells Alamar Blue (A549 cells): 64.4 percentage of controls |
| COC(=O)c1ccc(F)cc1Cl [compound 531, methyl 2‐chloro‐4‐fluorobenzoate] | 0.25 ± 0.07 °C | 84 ± 11.8% | 75.7% |  |
| CC(=O)c1cc(C)ccc1O [compound 184, 1‐(2‐hydroxy‐5‐methylphenyl)ethan‐1‐one] |  |  |  | Tb Ino1 Tm Shift [˚C] (TbINO1; [1]): 0.14 ± 0 °C; HeLa Cells Alamar Blue (HeLa cells; [2]): 91.7 ± 11.6 percentage of controls; A549 Cells Alamar Blue (A549 cells): 53.1 percentage of controls |
| CNCc1cc(-c2ccccc2)nn1C [compound 631, N‐methyl‐N‐[(1‐methyl‐3‐phenyl‐1H‐pyrazol‐5‐yl)methyl]amine] |  |  |  | Tb Ino1 Tm Shift [˚C] (TbINO1; [1]): 0.5 ± 0.08 °C; HeLa Cells Alamar Blue (HeLa cells; [2]): 66.2 ± 16.3 percentage of controls; A549 Cells Alamar Blue (A549 cells): 100.2 percentage of controls |
| Cc1cc(N)no1 [compound 9, 5‐methylisoxazol‐3‐amine] | 0.13 ± 0.06 °C |  | 112% | viability at 500 µM (HeLa cells; [5]): 105 ± 6.2% |
| CNCc1cccc(-c2cccnc2)c1 [compound 606, N‐methyl‐N‐(3‐pyridin‐3‐ylbenzyl)amine] | 0.07 ± 0.08 °C | 70.8 ± 5.8% | 69.8% |  |
| (Piperidino‐3‐pyridinyl)methanol [compound 569] |  |  |  | Tb Ino1 Tm Shift [˚C] (TbINO1; [1]): 0.35 ± 0.07 °C; HeLa Cells Alamar Blue (HeLa cells; [2]): 89.2 ± 4.8 percentage of controls; A549 Cells Alamar Blue (A549 cells): 106.4 percentage of controls |
| CC(=O)c1nccnc1C [compound 117, 1‐(3‐methylpyrazin‐2‐yl)ethan‐1‐one] | 0.4 ± 0.06 °C | 87.6 ± 11.3% | 88.3% |  |
| O=C(O)c1ccccc1-n1cccc1 [compound 513, 2-(1H-pyrrol-1-yl)benzoic acid] |  | 98.5 ± 6.5% | 64.4% | ΔTm at 1000 µM (TbINO1; compound 1 mM, mean ± SD (n = 3), read-out: TbIno1 Tm shift [°C]): 3.14 ± 0.09 °C; viability at 500 µM (HeLa cells; [6]): 98.5 ± 6.5% |
| O=C(O)c1ccco1 [compound 27, 2‐furoic acid] | 0.17 ± 0.06 °C | 95.7 ± 9.4% | 107% |  |
| OCc1ccc(-c2ccco2)cc1 [compound 383, [4-(2-furyl)phenyl]methanol] |  | 20 ± 10.6% | 89.6% | ΔTm at 1000 µM (TbINO1; read-out: TbIno1 Tm shift [°C]): 3.45 ± 0.09 °C; viability at 500 µM (HeLa cells; [6]): 20 ± 10.6%; CC50 (HeLa cells; Homo sapiens, HeLa, read-out: HeLa ED50): 292 ± 31 µM |
| NCc1ccc(-n2cccn2)cc1 [compound 378, 4‐(1H‐pyrazol‐1‐yl)benzylamine] | 0.19 ± 0.06 °C | 101 ± 8.3% | 95.9% |  |
| Cc1ccc(C#N)c(=O)[nH]1 [compound 109, 6‐methyl‐2‐oxo‐1,2‐dihydropyridine‐3‐carbonitrile] |  |  |  | Tb Ino1 Tm Shift [˚C] (TbINO1; [1]): 0.22 ± 0.06 °C; HeLa Cells Alamar Blue (HeLa cells; [2]): 97.4 ± 2 percentage of controls; A549 Cells Alamar Blue (A549 cells): 118.7 percentage of controls |
| O=C(O)C1CCNCC1 [compound 90, piperidine‐4‐carboxylic acid] | 0.5 ± 0.06 °C | 106 ± 2% | 132% |  |

| Compound | ΔTm at 1000 µM (TbINO1; [3]) | viability at 500 µM (HeLa cells; [4]) | viability at 500 µM (A549 cells) | other results |
| --- | --- | --- | --- | --- |
| NCc1nc2ccccc2s1 [compound 626, 1,3-benzothiazol-2-ylmethylamine hydrochloride] |  |  | 85.7% | ΔTm at 1000 µM (TbINO1; read-out: TbIno1 Tm shift [°C]): 2.03 ± 0.08 °C; viability at 500 µM (HeLa cells; Homo sapiens, HeLa, read-out: HeLa Cells Alamar Blue (% survival), compound 0.5 mM, percentage of controls): 95.1 ± 15.5%; viability at 500 µM (HeLa cells; [5]): 95.1 ± 15.5% |
| CNCc1c(-c2ccccc2)noc1C [compound 637, N‐methyl‐N‐[(5‐methyl‐3‐phenylisoxazol‐4‐yl)methyl]amine] |  |  |  | Tb Ino1 Tm Shift [˚C] (TbINO1; [1]): 0.02 ± 0.07 °C; HeLa Cells Alamar Blue (HeLa cells; [2]): 79.8 ± 7.5 percentage of controls; A549 Cells Alamar Blue (A549 cells): 112.6 percentage of controls |
| OCc1ccccc1-n1cccc1 [compound 371, [2‐(1H‐pyrrol‐1‐yl)phenyl]methanol] | 0.36 ± 0.07 °C | 88.5 ± 6.4% | 87.3% |  |
| N#Cc1ccc(Oc2ccccn2)cc1 [compound 596, 4‐(pyridin‐2‐yloxy)benzonitrile] | 0.68 ± 0.07 °C | 97.7 ± 11% | 72.1% |  |
| O=C(O)c1c[nH]c2ccccc12 [compound 273, 1H‐indole‐3‐carboxylic acid] | 0.01 ± 0.05 °C | 85.4 ± 12.2% | 61.8% |  |
| Cc1ccc[nH]c1=O [compound 17, 3‐methyl‐1,2‐dihydropyridin‐2‐one] | 0.81 ± 0.08 °C | 106 ± 11.4% | 87.2% |  |
| OCc1ccccc1N1CCOCC1 [compound 580, (2‐morpholinophenyl)methanol] | 0.34 ± 0.06 °C | 91.3 ± 16% | 123% |  |
| N#Cc1cc(-c2ccccc2)oc1N [compound 477, 2‐amino‐5‐phenyl‐3‐furonitrile] |  | 98.3 ± 18.6% | 97.4% | ΔTm at 1000 µM (TbINO1; Supplementary Table 1, compound 1mM, mean ± SD from Boltzman curve fitting, read-out: Tb Ino1 Tm Shift [˚C]): 0.04 ± 0.1 °C |
| Cc1nc(C(N)=S)cs1 [compound 252, 2‐methyl‐1,3‐thiazole‐4‐carbothioamide] | 0.7 ± 0.07 °C | 90.3 ± 10.7% | 102% |  |
| Cc1cc(N)[nH]n1 [compound 6, 3‐methyl‐1H‐pyrazol‐5‐amine] | 0.2 ± 0.06 °C | 102 ± 3.3% | 121% |  |
| CC(=O)c1sccc1N [compound 133, 1‐(3‐amino‐2‐thienyl)ethan‐1‐one] | 1.24 ± 0.07 °C | 83 ± 12.2% | 100% |  |
| O=C(O)Cc1coc2ccccc12 [compound 410, benzo[b]furan‐3‐ylacetic acid] | 0.8 ± 0.07 °C | 54.1 ± 10.3% | 97.4% |  |
| CCc1cccc(C)n1 [compound 52, 2‐ethyl‐6‐methylpyridine] | 0.4 ± 0.08 °C | 89.7 ± 9.7% | 70.8% |  |
| CSc1ccc(C(=O)O)s1 [compound 389, 5‐(methylthio)thiophene‐2‐carboxylic acid] |  |  |  | Tb Ino1 Tm Shift [˚C] (TbINO1; [1]): 0.43 ± 0.05 °C; HeLa Cells Alamar Blue (HeLa cells; [2]): 104.2 ± 16.4 percentage of controls; A549 Cells Alamar Blue (A549 cells): 125.1 percentage of controls |
| Nc1cccc(-n2cccc2)c1 [compound 251, 3‐(1H‐pyrrol‐1‐yl)aniline] | 0.15 ± 0.05 °C | 80.5 ± 3.4% | 79.8% |  |
| CN1CCc2c(sc(N)c2C#N)C1 [compound 581, 2‐amino‐6‐methyl‐4,5,6,7‐tetrahydrothieno[2,3‐c]pyridine‐3‐carbonitrile] |  |  |  | Tb Ino1 Tm Shift [˚C] (TbINO1; [1]): 1.39 ± 0.08 °C; HeLa Cells Alamar Blue (HeLa cells; [2]): 85.8 ± 12.8 percentage of controls; A549 Cells Alamar Blue (A549 cells): 82.2 percentage of controls |
